# Experimental data as given in patent publication US20250134952A1, “METHODS FOR IMPROVING THE EFFICACY OF HDAC INHIBITOR THERAPY AND PREDICTING THE RESPONSE TO TREATMENT WITH HDAC INHIBITOR” (INSTITUT NATIONAL DE LA SANTÉ ET DE LA RECHERCHE MÉDICALE, priority 2021, published 2025).
# Test system: p21 promoter in MCF7shctrl or shTau cells
# Assay: ChIP-qPCR of H3 acetylation and Tau occupancy on the p21 promoter
# Type: cell-based, human
# Conditions: for acetylated H3 enrichment compared to IgG: p21 promoter (transcription start site region)
# From the text: (A) Chromatin immunoprecipitations-qPCR analysis of H3 acetylation and Tau occupancy on the GAPDH promoter in MCF7shctrl cells in the indicated conditions. MCF7shctrl cells were subjected to cross-linking by 1% formaldehyde. Chromatin fragments were then immunoprecipitated using antibodies (Ab) against acetylated H3 (ac-H3) or Tau and analyzed by quantitative PCR for the presence of the GAPDH promoter. (B) Functional organization of the p21 promoter. (C) ChIP-qPCR analysis of H3 acetylation in MCF7shctrl or shTau cells or (D) Tau occupancy in MCF7shctrl cells on the p21 promoter. (E) ChIP-qPCR analysis of H3 acetylation or Tau occupancy on the stably transfected GAL4UAS responsive luciferase reporter transfected, or not, with Tau4R, then 24 h later treated with 100 nM TSA for 24 h. Cells were then subjected to cross-linking by 1% formaldehyde. Chromatin fragments were then immunoprecipitated using antibodies (Ab) against acetylated H3 or Tau and analyzed by quantitative PCR for the presence of the GAL4 UAS promoter. Quantification of enrichment is represented as fold-enrichment relative to IgG. Data are mean±SD **P<0.01***P<0.001
# The ChIP protocol used was previously described (Lefebvre et al., 2006). Primers sequences for the pGL4.31[luc2P/GAL4 UAS/Hygro] promoter were: forward, 5′-[…]-3′ (SEQ ID N^o1), and reverse, 5′-[…]-3′ (SEQ ID N^o2); for p21 promoter: distal forward 5′-[…]-3′ (SEQ ID N^o3) and reverse 5′-[…]-3′ (SEQ ID N^o4); proximal forward 5′-[…]-3′ (SEQ ID N^o5) and reverse 5′-[…]-3′ (SEQ ID N^o6); p21 (transcription start site) TSS forward: 5′-[…]-3′ (SEQ ID N^o7) and reverse 5′-GCTCTCTCACCTCCTCTG3′ (SEQ ID N^o8); for GAPDH TSS: forward 5′-[…]-3′ (SEQ ID N^o9) and reverse 5′-[…]-3′ (SEQ ID N^o10). Antibodies used in the studies included the following: anti-acetylated H3 (Active motif, 39139) and anti-Tau1 (Millipore, MAB3420). All ChIP analyses were performed in at least two independent experiments.
# To test this hypothesis, we next performed chromatin immunoprecipitations assays. Antibodies specific for acetylated H3 (ac-H3) and Tau were used to immunoprecipitate formaldehyde-cross-linked sonicated chromatin from short hairpin Tau knockdowns and control cells treated, or not, with 100 nM TSA. Quantitative PCR analysis of input or immunoprecipitated DNA using acetylated H3 and Tau antibodies was carried out to detect different promoter regions. As a control of non-TSA-inducible gene, we first used primers encompassing the transcription start site of the GAPDH promoter. No change in the level of acetylated H3, nor Tau binding, were detected after TSA treatment (FIG. 3A). […] In addition, Tau was detected at the level of these regions in MCF7shctrl cells (≈4-fold enrichment) in absence or presence of TSA treatment (FIG. 3D).
compound,measurement,setting,value
"CC(/C=C/C(=O)NO)=C\[C@@H](C)C(=O)c1ccc(N(C)C)cc1 [TSA, 2,4-Heptadienamide, 7-[4-(dimethylamino)phenyl]-N-hydroxy-4,6-dimethyl-7-oxo-, (2E,4E,6R)-]",acetylated H3 enrichment compared to non-treated cells,"100 nM TSA, MCF7shTau cells, p21 proximal and distal regions",≈ 10 fold
same,acetylated H3 enrichment compared to IgG,"100 nM TSA, shctrl cells",70 fold
same,Tau enrichment (occupancy),"MCF7shctrl cells, p21 proximal and distal regions, in absence or presence of TSA treatment",≈ 4 fold
same,acetylated H3 enrichment compared to IgG,"shTau cells, irrespective of TSA treatment",≈ 160 fold
